Reference: BigSolDB 2.1

O=P(Oc1ccccc1)(Oc1ccccc1)N1CCN(P(=O)(Oc2ccccc2)Oc2ccccc2)CC1
solubility (mole fraction)
Conditions	in THF	in acetone	in benzene	in chloroform	in dichloromethane	in ethanol	in ethyl acetate	in methanol	in toluene
288.15 K	–	–	–	–	0.00585	–	–	–	–
293.15 K	0.00109	0.000424	0.00268	0.0132	0.00725	0.000495	0.000826	3.28e-05	0.000506
298.15 K	0.00143	0.000489	0.00319	0.0146	0.00878	0.000613	0.00103	5.77e-05	0.000616
303.15 K	0.00183	0.000559	0.00385	0.0162	0.0106	0.000746	0.00122	9.84e-05	0.000782
308.15 K	0.00236	0.000631	0.00458	0.0183	0.013	0.000946	0.00158	0.000156	0.000986
313.15 K	0.00301	0.000717	0.00549	0.0202	–	0.00113	0.00194	0.000251	0.00124
318.15 K	0.00375	0.000795	0.00632	0.0223	–	0.00134	0.00242	0.000415	0.00148
323.15 K	0.00493	0.000901	0.00724	0.0245	–	0.00158	0.00301	0.000656	0.00178
328.15 K	0.00605	–	0.00834	–	–	0.00186	0.0036	–	0.00213
333.15 K	0.00766	–	0.00972	–	–	0.00221	0.00437	–	0.00251
338.15 K	–	–	0.0112	–	–	0.00269	0.00521	–	0.00313
343.15 K	–	–	0.0129	–	–	0.0032	0.00614	–	0.00371
